According to ChEMBL document CHEMBL1201862, “PubChem BioAssay data set” (2004):
Activity calls are given as the source filed them.

Tests used:
Hexokinase HKDC1 = molecular target: T1, Hexokinase HKDC1 (Homo sapiens, UniProt Q2TB90); assay: inhibition of HKDC1 glucose phosphorylation – biochemical, W721R variant, dose response (AID 504729); assay type: functional
T1 sequence (Q2TB90 whole entry): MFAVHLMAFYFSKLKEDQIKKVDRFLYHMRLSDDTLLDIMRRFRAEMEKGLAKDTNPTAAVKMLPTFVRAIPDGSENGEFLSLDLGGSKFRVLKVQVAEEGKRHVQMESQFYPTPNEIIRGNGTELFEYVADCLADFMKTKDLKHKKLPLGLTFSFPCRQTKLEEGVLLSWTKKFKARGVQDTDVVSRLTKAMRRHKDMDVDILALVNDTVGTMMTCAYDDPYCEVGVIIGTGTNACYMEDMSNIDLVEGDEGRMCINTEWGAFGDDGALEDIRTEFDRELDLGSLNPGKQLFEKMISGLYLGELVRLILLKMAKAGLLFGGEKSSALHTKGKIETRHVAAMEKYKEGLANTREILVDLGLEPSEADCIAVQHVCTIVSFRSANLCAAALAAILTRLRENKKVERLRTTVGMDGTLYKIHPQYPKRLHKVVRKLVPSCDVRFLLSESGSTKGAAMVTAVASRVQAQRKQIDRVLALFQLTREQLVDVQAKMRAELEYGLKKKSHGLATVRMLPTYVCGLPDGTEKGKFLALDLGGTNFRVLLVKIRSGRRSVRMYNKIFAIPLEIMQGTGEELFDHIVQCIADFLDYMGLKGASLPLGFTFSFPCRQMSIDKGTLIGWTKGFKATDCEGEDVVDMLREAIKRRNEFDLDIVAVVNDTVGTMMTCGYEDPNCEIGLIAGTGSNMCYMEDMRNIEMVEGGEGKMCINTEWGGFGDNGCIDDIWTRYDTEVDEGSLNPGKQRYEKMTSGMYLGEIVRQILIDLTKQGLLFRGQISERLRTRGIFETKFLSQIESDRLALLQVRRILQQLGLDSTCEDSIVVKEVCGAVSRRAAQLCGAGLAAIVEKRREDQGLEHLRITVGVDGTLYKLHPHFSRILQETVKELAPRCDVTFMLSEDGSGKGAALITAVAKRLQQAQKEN

[1] = molecular target: Voltage-gated N-type calcium channel alpha-1B subunit/Amyloid beta A4 precursor protein-binding family A member 1 (Homo sapiens, UniProt Q00975+Q02410); assay type: protein assay
Aspartyl aminopeptidase = molecular target: T2, Aspartyl aminopeptidase (Plasmodium falciparum 3D7, UniProt Q8I2J3)
T2 sequence (Q8I2J3 whole entry): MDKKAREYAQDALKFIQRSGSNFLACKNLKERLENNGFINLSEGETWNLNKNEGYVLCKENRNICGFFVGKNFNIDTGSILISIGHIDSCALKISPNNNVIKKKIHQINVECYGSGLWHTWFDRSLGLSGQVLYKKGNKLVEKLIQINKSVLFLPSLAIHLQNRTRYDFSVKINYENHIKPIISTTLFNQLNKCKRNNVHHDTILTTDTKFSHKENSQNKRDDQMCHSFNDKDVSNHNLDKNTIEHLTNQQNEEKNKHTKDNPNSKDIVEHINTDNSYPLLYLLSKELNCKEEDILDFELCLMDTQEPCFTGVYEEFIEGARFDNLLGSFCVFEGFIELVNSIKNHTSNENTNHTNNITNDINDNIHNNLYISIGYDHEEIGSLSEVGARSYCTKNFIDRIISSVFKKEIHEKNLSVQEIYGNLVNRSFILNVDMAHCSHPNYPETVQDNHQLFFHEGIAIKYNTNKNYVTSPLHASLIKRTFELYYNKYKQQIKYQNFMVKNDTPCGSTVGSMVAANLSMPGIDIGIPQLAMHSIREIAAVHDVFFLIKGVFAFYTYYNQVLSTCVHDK

Protein RecA = molecular target: T3, Protein RecA (Mycobacterium tuberculosis, UniProt P9WHJ3); assay: Fluorescence Cell-Free Homogeneous Dose Retest to Identify Inhibitors of RecA-Intein Splicing Activity. [Related pubchem assays (depositor defined):AID2097, AID2223, AID489010, AID492950]; assay type: functional
T3 sequence (P9WHJ3 whole entry): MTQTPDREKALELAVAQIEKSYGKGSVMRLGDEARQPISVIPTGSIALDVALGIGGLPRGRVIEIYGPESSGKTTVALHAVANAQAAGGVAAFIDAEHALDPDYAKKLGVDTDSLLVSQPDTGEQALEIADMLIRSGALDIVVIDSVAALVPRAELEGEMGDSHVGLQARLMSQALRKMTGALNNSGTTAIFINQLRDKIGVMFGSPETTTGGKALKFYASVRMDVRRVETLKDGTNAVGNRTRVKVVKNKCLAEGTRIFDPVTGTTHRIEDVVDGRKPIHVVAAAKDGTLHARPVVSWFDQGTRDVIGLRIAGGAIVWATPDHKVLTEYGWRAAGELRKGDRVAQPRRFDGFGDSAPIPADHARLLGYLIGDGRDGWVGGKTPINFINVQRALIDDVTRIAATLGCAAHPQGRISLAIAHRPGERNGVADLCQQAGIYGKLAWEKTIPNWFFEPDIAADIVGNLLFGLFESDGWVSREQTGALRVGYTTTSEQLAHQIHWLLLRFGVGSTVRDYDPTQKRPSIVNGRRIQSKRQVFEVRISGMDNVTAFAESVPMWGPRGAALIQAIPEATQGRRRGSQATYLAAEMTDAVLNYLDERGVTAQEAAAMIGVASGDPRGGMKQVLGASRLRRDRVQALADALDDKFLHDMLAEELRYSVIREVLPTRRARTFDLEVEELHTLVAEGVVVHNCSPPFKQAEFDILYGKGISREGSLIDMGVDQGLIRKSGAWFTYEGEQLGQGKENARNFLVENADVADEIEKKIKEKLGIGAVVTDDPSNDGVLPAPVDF

[2] = molecular target: Lysine-specific demethylase 4C (Homo sapiens, UniProt Q9H3R0); assay: inhibition of JMJD2C H3K9me3 demethylation – biochemical, DELFIA europium, cherry-picked samples, dose response (AID 488835); assay type: functional
Sequence of Lysine-specific demethylase 4C (Q9H3R0 whole entry): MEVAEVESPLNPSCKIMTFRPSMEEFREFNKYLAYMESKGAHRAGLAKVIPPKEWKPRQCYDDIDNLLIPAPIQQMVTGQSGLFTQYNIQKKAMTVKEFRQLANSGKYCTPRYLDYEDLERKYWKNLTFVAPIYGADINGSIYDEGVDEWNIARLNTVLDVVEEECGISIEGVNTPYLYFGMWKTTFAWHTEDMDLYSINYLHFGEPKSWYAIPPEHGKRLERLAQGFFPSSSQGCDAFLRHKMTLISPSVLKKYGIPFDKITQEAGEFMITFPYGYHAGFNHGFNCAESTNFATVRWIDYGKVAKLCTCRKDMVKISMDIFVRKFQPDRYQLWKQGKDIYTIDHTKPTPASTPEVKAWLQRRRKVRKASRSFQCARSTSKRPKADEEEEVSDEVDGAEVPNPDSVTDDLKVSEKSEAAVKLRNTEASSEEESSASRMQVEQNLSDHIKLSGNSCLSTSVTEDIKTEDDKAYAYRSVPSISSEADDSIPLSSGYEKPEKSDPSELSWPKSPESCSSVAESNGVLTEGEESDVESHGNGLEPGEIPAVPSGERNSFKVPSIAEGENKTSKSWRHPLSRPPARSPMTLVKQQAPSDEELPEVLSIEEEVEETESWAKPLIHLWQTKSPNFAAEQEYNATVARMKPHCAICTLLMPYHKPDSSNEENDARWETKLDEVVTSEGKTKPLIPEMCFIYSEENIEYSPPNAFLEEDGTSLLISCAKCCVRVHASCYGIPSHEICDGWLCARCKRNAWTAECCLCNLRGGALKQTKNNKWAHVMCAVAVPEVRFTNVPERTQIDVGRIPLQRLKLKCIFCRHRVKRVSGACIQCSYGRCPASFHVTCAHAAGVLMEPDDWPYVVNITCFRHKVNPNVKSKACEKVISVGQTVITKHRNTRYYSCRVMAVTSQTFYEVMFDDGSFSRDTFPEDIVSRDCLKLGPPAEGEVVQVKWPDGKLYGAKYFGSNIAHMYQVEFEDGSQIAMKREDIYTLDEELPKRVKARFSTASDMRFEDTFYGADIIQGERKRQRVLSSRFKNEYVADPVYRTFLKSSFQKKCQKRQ

Sequence of Voltage-gated N-type calcium channel alpha-1B subunit/Amyloid beta A4 precursor protein-binding family A member 1 (Q00975 whole entry): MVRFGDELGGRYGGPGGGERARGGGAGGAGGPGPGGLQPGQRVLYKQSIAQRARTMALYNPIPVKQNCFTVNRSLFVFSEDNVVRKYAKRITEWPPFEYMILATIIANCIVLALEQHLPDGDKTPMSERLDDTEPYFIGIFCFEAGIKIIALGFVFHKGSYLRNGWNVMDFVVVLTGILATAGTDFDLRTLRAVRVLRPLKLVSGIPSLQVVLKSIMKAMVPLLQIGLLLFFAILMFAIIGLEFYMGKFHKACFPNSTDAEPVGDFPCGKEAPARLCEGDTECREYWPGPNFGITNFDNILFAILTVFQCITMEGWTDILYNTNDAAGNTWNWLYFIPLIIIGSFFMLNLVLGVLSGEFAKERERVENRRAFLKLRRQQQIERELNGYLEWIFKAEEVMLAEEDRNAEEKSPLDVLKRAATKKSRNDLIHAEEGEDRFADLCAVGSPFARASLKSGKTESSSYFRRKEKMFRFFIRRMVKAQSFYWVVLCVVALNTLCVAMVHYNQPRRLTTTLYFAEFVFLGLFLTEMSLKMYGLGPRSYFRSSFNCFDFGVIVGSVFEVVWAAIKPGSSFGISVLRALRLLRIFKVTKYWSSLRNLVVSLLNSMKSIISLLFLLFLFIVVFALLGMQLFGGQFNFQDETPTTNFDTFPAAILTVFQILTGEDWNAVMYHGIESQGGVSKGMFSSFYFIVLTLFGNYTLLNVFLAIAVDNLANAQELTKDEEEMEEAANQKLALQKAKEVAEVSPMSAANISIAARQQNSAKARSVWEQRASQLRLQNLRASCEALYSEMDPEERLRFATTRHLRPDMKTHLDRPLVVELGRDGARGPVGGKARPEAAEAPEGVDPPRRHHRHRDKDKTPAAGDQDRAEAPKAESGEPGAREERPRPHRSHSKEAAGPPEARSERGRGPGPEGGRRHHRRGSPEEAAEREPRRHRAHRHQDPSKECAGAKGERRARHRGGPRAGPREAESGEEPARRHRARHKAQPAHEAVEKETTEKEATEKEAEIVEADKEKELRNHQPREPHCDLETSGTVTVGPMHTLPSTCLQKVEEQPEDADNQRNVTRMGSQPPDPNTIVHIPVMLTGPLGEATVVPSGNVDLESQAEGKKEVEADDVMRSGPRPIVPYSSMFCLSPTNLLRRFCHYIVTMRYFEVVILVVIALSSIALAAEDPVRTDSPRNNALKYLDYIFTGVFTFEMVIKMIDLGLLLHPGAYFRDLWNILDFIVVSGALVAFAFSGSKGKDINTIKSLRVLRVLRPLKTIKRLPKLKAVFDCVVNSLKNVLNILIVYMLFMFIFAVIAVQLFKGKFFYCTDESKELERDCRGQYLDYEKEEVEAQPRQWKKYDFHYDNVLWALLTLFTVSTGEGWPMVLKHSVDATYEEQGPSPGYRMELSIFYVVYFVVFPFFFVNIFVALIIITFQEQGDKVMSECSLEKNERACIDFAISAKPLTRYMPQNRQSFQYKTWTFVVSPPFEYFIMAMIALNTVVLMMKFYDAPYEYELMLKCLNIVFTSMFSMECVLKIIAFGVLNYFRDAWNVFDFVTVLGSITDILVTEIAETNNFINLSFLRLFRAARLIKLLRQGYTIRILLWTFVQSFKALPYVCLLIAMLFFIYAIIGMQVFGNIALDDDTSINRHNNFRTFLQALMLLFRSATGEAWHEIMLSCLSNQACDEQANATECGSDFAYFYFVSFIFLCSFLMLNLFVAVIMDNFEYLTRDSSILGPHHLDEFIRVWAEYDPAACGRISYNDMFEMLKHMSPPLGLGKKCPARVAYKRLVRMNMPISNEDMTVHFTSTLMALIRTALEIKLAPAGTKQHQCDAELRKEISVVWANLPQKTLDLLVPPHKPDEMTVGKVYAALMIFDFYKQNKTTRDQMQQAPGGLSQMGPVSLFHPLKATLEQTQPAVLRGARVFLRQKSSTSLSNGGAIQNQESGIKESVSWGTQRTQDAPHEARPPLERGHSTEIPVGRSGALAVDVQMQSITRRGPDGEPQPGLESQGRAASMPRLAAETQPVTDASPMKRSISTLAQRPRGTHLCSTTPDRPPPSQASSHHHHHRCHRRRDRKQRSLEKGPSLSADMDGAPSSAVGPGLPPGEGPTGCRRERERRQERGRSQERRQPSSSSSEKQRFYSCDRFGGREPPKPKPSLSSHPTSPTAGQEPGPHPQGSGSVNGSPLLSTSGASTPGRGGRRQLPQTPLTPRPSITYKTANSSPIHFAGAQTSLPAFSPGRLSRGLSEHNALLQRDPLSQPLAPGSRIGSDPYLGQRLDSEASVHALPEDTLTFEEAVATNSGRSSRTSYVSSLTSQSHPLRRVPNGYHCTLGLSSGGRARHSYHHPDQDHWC
Sequence of Voltage-gated N-type calcium channel alpha-1B subunit/Amyloid beta A4 precursor protein-binding family A member 1 (Q02410 whole entry): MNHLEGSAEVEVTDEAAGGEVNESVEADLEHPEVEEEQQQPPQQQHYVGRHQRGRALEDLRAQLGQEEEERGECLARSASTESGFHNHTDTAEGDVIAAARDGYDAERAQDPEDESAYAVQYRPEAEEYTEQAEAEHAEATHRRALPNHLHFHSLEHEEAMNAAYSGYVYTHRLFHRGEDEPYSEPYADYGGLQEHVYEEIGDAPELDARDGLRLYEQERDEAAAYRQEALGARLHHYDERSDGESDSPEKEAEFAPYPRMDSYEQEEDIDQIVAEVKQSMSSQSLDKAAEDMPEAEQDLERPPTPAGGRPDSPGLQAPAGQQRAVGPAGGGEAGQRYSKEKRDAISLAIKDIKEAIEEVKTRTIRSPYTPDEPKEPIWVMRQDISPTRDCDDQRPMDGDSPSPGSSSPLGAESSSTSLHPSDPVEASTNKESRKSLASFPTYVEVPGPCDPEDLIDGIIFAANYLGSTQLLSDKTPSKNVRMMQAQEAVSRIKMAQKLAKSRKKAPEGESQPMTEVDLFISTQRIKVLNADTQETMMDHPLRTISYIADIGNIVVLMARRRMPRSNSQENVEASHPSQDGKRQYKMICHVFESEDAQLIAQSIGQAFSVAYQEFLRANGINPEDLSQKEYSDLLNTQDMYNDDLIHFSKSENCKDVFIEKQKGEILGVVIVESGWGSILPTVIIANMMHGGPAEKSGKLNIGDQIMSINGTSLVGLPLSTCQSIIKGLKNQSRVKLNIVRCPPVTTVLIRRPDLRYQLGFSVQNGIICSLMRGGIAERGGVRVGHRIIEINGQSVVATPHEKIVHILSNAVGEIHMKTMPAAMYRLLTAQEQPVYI

O=C(O)c1cc(N2N=C(C(F)(F)F)/C(=C/C=C/c3ccco3)C2=O)ccc1Cl
IC50 (Hexokinase HKDC1): 5.66 µM (active)
IC50 [1]: 24.6 µM (active)

CNCc1ccccc1Sc1ccc(O)c(O)c1
IC50 (Aspartyl aminopeptidase): 1.89 µM (active)
EC50 (Protein RecA): 2.57 µM (active)

Cc1cc(C)c(S(=O)(=O)Nc2cc(SCC(=O)O)c(O)c3ccccc23)cc1C
AC50 [2]: 13 µM (active)
EC50 (Protein RecA): 0.277 µM (active)
IC50 (Hexokinase HKDC1): 4.72 µM (active)
